Data: PMC4403932 (Journal of Medicinal Chemistry, 2015)

Legend:
Format in all cases: binding
BRD9 = target: T1, BRD9 (Homo sapiens, UniProt Q9H8M2); experiment: Protein stability (thermal) shift assay, BRD9; conditions: compound 10 μM, protein 2 μM; average of triplicate; read-out: ΔTm Shift, BRD9
T1 construct: made in house
T1 sequence (Q9H8M2 136-240 limits assumed): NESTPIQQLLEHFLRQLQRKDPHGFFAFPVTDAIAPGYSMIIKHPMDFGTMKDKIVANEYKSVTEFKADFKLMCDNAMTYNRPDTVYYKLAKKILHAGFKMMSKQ
Description: (§1) Thermal melting experiments were carried out using an Mx3005p real time PCR machine (Stratagene). Proteins were buffered in 10 mM HEPES, pH 7.5, 500 mM NaCl and assayed in a 96-well plate at a final concentration of 2 μM in 20 μL volume. Compounds were added at a final concentration of 10 or 100 μM. SYPRO Orange (Molecular Probes) was added as a fluorescence probe at a dilution of 1 in 1000. Excitation and emission filters for the SYPRO-Orange dye were set to 465 and 590 nm, respectively. The temperature was raised with a step of 3 °C per minute from 25 to 96 °C, and fluorescence readings were taken at each interval. The temperature dependence of the fluorescence during the protein denaturation process was approximated by the equation [drawing 1] where ΔuG is the difference in unfolding free energy between the folded and unfolded state, R is the gas constant, and yF and yU are the fluorescence intensity of the probe in the presence of completely folded and unfolded protein, respectively.[65] The baselines of the denatured and native states were approximated by a linear fit. The observed temperature shifts, ΔTm^obs, were recorded as the difference between the transition midpoints of sample and reference wells containing protein without ligand in the same plate and determined by nonlinear least-squares fit. Temperature shifts (ΔTm^obs) for three independent measurements per proteins/compound are summarized in Supporting Information Table S1.

BRD4(1) = target: T2, BRD4(1) (Homo sapiens, UniProt O60885); experiment: Protein stability (thermal) shift assay, BRD4(1); conditions: compound 10 μM, protein 2 μM; average of triplicate; read-out: ΔTm Shift, BRD4(1)
T2 construct: made in house
Description: as §1

BRD2(1) = target: T3, BRD2(1) (Homo sapiens, UniProt P25440); experiment: Protein stability (thermal) shift assay, BRD2(1); conditions: compound 10 μM, protein 2 μM; average of triplicate
T3 construct: Fragments were tested in a thermal shift assay against bromodomains of the BET subfamily; made in house
Description: as §1

PCAF = target: T4, PCAF (Homo sapiens, UniProt Q92831); experiment: Protein stability (thermal) shift assay, PCAF; conditions: compound 10 μM, protein 2 μM; average of triplicate
T4 construct: representative BRDs from other structural subfamilies (family I, PCAF); made in house
T4 sequence (Q92831 723-827 limits assumed): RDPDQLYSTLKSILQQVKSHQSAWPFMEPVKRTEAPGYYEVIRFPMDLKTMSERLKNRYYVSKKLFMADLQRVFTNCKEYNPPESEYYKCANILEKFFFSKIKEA
Description: as §1

CREBBP = target: T5, CREBBP (Homo sapiens, UniProt Q92793); experiment: Protein stability (thermal) shift assay, CREBBP; conditions: compound 10 μM, protein 2 μM; average of triplicate; read-out: ΔTm Shift, CREBBP
T5 construct: small thermal shits (1.0–1.3 °C) for the bromodomain of CREBBP; made in house
Description: as §1

BRDT(2) = target: T6, BRDT(2) (Homo sapiens, UniProt Q58F21); experiment: Protein stability (thermal) shift assay, BRDT(2); conditions: compound 10 μM, protein 2 μM; average of triplicate; read-out: ΔTm Shift, BRDT(2)
T6 construct: made in house
Description: as §1

PB1(5) = target: T7, PB1(5) (Homo sapiens, UniProt Q86U86); experiment: Protein stability (thermal) shift assay, PB1(5); conditions: compound 10 μM, protein 2 μM; average of triplicate
T7 construct: made in house
Description: as §1

BRD2(2) = target: T8, BRD2(2) (Homo sapiens, UniProt P25440); experiment: Protein stability (thermal) shift assay, BRD2(2); conditions: compound 10 μM, protein 2 μM; average of triplicate
T8 construct: made in house
Description: as §1

BRD3(1) = target: T9, BRD3(1) (Homo sapiens, UniProt Q15059); experiment: Protein stability (thermal) shift assay, BRD3(1); conditions: compound 10 μM, protein 2 μM; average of triplicate
T9 construct: Fragments were tested in a thermal shift assay against bromodomains of the BET subfamily; made in house
Description: as §1

BRD3(2) = target: T10, BRD3(2) (Homo sapiens, UniProt Q15059); experiment: Protein stability (thermal) shift assay, BRD3(2); conditions: compound 10 μM, protein 2 μM; average of triplicate
T10 construct: made in house
Description: as §1

BRD4(2) = target: T11, BRD4(2) (Homo sapiens, UniProt O60885); experiment: Protein stability (thermal) shift assay, BRD4(2); conditions: compound 10 μM, protein 2 μM; average of triplicate
T11 construct: made in house
Description: as §1

BRDT(1) = target: T12, BRDT(1) (Homo sapiens, UniProt Q58F21); experiment: Protein stability (thermal) shift assay, BRDT(1); conditions: compound 10 μM, protein 2 μM; average of triplicate
T12 construct: made in house
Description: as §1

BAZ2B = target: T13, BAZ2B (Homo sapiens, UniProt Q9UIF8); experiment: Protein stability (thermal) shift assay, BAZ2B; conditions: compound 10 μM, protein 2 μM; average of triplicate; read-out: ΔTm Shift, BAZ2BA
T13 construct: representative BRDs from other structural subfamilies (family I, PCAF); family III, CREBBP; family IV, BRD9; family V, BAZ2B; made in house
T13 sequence (Q9UIF8 2060-2164 limits assumed): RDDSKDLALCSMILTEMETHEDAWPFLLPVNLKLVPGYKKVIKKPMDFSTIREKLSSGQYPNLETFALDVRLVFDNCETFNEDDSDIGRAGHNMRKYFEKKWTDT
Description: as §1

T9 sequence (Q15059 34-140 limits assumed): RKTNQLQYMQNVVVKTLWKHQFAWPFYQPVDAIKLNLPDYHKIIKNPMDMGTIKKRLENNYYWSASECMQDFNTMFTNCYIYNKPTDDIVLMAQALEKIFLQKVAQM
T3 sequence (P25440 74-180 limits assumed): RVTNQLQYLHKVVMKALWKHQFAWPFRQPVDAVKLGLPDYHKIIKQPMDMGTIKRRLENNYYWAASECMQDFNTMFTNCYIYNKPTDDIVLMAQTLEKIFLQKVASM
T8 sequence (P25440 344-453 limits assumed): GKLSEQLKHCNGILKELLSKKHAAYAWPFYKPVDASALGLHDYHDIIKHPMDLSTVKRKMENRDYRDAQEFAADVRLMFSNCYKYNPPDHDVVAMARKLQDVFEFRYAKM
T7 sequence (Q86U86 653-763 limits assumed): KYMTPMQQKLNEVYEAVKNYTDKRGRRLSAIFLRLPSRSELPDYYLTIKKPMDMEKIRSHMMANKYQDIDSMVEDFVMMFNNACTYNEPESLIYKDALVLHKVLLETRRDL
T10 sequence (Q15059 306-415 limits assumed): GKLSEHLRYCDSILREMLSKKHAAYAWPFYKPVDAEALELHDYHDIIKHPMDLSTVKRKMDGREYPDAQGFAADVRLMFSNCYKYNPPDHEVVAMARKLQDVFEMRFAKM
T5 sequence (Q92793 1085-1192 limits assumed): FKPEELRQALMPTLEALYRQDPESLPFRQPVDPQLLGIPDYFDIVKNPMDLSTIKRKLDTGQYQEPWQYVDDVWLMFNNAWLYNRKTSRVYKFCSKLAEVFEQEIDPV

| Compound | ΔTm at 10 µM (BRD9) [°C] | ΔTm at 10 µM (BRD4(1)) [°C] | ΔTm at 10 µM (BRD2(1)) [°C] | ΔTm at 10 µM (PCAF) [°C] | ΔTm at 10 µM (CREBBP) [°C] | ΔTm at 10 µM (BRDT(2)) [°C] | ΔTm at 10 µM (PB1(5)) [°C] | ΔTm at 10 µM (BRD2(2)) [°C] | ΔTm at 10 µM (BRD3(1)) [°C] | ΔTm at 10 µM (BRD3(2)) [°C] | ΔTm at 10 µM (BRD4(2)) [°C] | ΔTm at 10 µM (BRDT(1)) [°C] | ΔTm at 10 µM (BAZ2B) [°C] |
| --- | --- | --- | --- | --- | --- | --- | --- | --- | --- | --- | --- | --- | --- |
| COc1cc(COc2ccc(-c3nc(N)nc4[nH]cnc34)cc2Cl)cc(OC)c1 [Compound 4b, 2-Amino-6-(3-chloro-4-(3′,5′-dimethoxybenzyloxy)phenyl)-9H-purine] | -2 | 0.54 | -0.113 | 1.6 | -0.04 | 0.7 | 0.7 | 0.159 | 0.445 | -0.379 | -2.9 | 0.658 | 2.3 |
| Nc1nc(-c2ccc3c(c2)OCCO3)c2nc[nH]c2n1 [Compound 4c, 2-Amino-6-(2,3-dihydrobenzo[b][1,4]dioxin-6-yl)-9H-purine] | 0.8 | 0.4 | -0.3 | -1.2 | -1.5 | -0.166 | -1.6 | -0.0273 | 0.0747 | 0.9 | -1.3 | -0.125 | -0.9 |
| Nc1nc(-c2cccc(OCc3ccc(Cl)cc3)c2)c2nc[nH]c2n1 [Compound 4d, 2-Amino-6-(3-(4′-chlorobenzyloxy)phenyl)-9H-purine] |  | 1.5 | 0.643 | 0.7 | 1.5 | 1.2 | 0.553 | 1.4 | 0.7 | 1.2 | 1 | 0.7 | 0.653 |
| CCCCOc1cc(Br)cc(-c2nc(N)nc3[nH]cnc23)c1 [Compound 5a, 2-Amino-6-(3-bromo-5-butoxyphenyl)-9H-purine] | 1.1 | 1.6 | 0.7 | 1.3 | 1.7 | 1.8 | 1.1 | 1.7 | 0.9 | 1.5 | 1.3 | 1 | 1.1 |
| COc1cccc(OC)c1-c1nc(N)nc2[nH]cnc12 [Compound 6a, 2-Amino-6-(2,6-dimethoxyphenyl)-9H-purine] | -0.1 | 0.7 | 0.167 | -0.4 | 0.34 | 0.364 | 0.4 | 0.4 | 0.341 | 1.3 | -1.3 | -0.122 | 0.0167 |
| COc1cccc(OC(C)C)c1-c1nc(N)nc2[nH]cnc12 [Compound 6b, 2-Amino-6-(2-isopropoxy-6-methoxyphenyl)-9H-purine] | -0.162 | 0.6 | -0.459 | -0.261 | -0.1 | 0.447 | 0.216 | -0.3 | 0.651 | 0.6 | -0.845 | 0.165 | -0.3 |
| COc1cccc(OCC(C)C)c1-c1nc(N)nc2[nH]cnc12 [Compound 6c, 2-Amino-6-(2-isobutoxy-6-methoxyphenyl)-9H-purine] | -0.0523 | 1 | 0.187 | -0.121 | -0.4 | 0.8 | -0.324 | 0.6 | 1.2 | 1.1 | 0.4 | -0.0153 | -0.147 |
